Measured values: patent US12077503B2, “Substituted cyclic amides and their use as herbicides” (FMC CORPORATION, priority 2015, dated 2024)

Tests used:
Type in all cases: in vivo
[1] = test system: Kochia (Kochia scoparia); assay: Test A preemergence; settings: Bassia scoparia, pre-emergence, 240 h, 0 to 100 scale where 0 is no effect and 100 is complete control, read-out: Kochia plant response rating
How it was run: (§1)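 Visual injury scores from 0, no effect, to 100, complete control, were assigned versus untreated controls roughly 10 d after treatment in the greenhouse. Test chemicals, formulated with surfactant in a non-phytotoxic solvent, were applied to planted seeds as a preemergence soil spray or postemergence to one- to two-leaf plants 2 to 10 cm tall, in loam–sand soil.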

[2] = test system: barnyardgrass (Echinochloa crus-galli); assay: Test A preemergence; settings: Echinochloa crus-galli, pre-emergence, 240 h, 0 to 100 scale where 0 is no effect and 100 is complete control, read-out: Barnyardgrass plant response rating
How it was run: as §1

[3] = test system: giant foxtail (Setaria faberii); assay: Test A preemergence; settings: Setaria faberi, pre-emergence, 240 h, 0 to 100 scale where 0 is no effect and 100 is complete control, read-out: Foxtail, Giant plant response rating
How it was run: as §1

[4] = test system: pigweed (Amaranthus retroflexus); assay: Test A preemergence; settings: Amaranthus retroflexus, pre-emergence, 240 h, 0 to 100 scale where 0 is no effect and 100 is complete control, read-out: Pigweed plant response rating
[5] = test system: ragweed (common ragweed, Ambrosia elatior); assay: Test A preemergence; settings: Ambrosia artemisiifolia, pre-emergence, 240 h, 0 to 100 scale where 0 is no effect and 100 is complete control, read-out: Ragweed plant response rating
How it was run: as §1

[6] = test system: ryegrass, Italian (Italian ryegrass, Lolium multiflorum); assay: Test A preemergence; settings: Lolium multiflorum, pre-emergence, 240 h, 0 to 100 scale where 0 is no effect and 100 is complete control, read-out: Ryegrass, Italian plant response rating
How it was run: as §1

[7] = test system: Galium (catchweed bedstraw, Galium aparine); assay: Test A postemergence; settings: Galium, post-emergence, 240 h
How it was run: as §1

[8] = test system: Kochia (Kochia scoparia); assay: Test A postemergence; settings: Bassia scoparia, post-emergence, 240 h
How it was run: as §1

[9] = test system: barnyardgrass (Echinochloa crus-galli); assay: Test A postemergence; settings: Echinochloa crus-galli, post-emergence, 240 h
How it was run: as §1

[10] = test system: blackgrass (Alopecurus myosuroides); assay: Test A postemergence; settings: Alopecurus myosuroides, post-emergence, 240 h
How it was run: as §1

[11] = test system: corn (Zea mays); assay: Test A postemergence; settings: Zea mays, post-emergence, 240 h
How it was run: as §1

[12] = test system: giant foxtail (Setaria faberii); assay: Test A postemergence; settings: Setaria faberi, post-emergence, 240 h
How it was run: as §1

[13] = test system: pigweed (Amaranthus retroflexus); assay: Test A postemergence; settings: Amaranthus retroflexus, post-emergence, 240 h
How it was run: as §1

[14] = test system: ragweed (common ragweed, Ambrosia elatior); assay: Test A postemergence; settings: Ambrosia artemisiifolia, post-emergence, 240 h
How it was run: as §1

[15] = test system: ryegrass, Italian (Italian ryegrass, Lolium multiflorum); assay: Test A postemergence; settings: Lolium multiflorum, post-emergence, 240 h
How it was run: as §1

[16] = test system: wheat (Triticum aestivum); assay: Test A postemergence; settings: Triticum aestivum, post-emergence, 240 h
How it was run: as §1

[17] = test system: barnyardgrass (Echinochloa crus-galli); assay: Test B flooded paddy test; settings: Echinochloa crus-galli, 250 g ai/ha, Flood; 0 to 100 scale where 0 is no effect and 100 is complete control; read-out: Barnyardgrass plant response rating
How it was run: (§2)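 Visual ratings (0 none to 100 complete control) are relative to untreated plants, taken 13–15 d after treatment in a greenhouse. Test material went straight into floodwater standing 3 cm above the soil, kept constant, on plants at the 2-leaf stage.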

[18] = test system: ducksalad (Heteranthera limosa); assay: Test B flooded paddy test; settings: Heteranthera limosa, 250 g ai/ha, Flood; 0 to 100 scale where 0 is no effect and 100 is complete control; read-out: Ducksalad plant response rating
How it was run: as §2

[19] = test system: rice (Oryra sativa); assay: Test B flooded paddy test; settings: Oryza sativa, 250 g ai/ha, Flood; 0 to 100 scale where 0 is no effect and 100 is complete control; read-out: Rice plant response rating
How it was run: as §2

[20] = test system: sedge, umbrella (small-flower umbrella sedge, Cyperus difformis); assay: Test B flooded paddy test; settings: Cyperus difformis, 250 g ai/ha, Flood; 0 to 100 scale where 0 is no effect and 100 is complete control; read-out: Sedge, Umbrella plant response rating
How it was run: as §2

[21] = 125 g ai/ha, preemergence, approx. 10 d

Structure (SMILES): CN1CC(c2cccc(C(F)(F)F)c2)C(C(=O)Nc2ccccc2CO)C1=O (stereo not drawn) [Compound 1145]
- pest or weed control at 31 g/ha ([1]; 31 g ai/ha, Preemergence): 0%
- pest or weed control at 125 g/ha [1, 21]: 50%
- pest or weed control at 31 g/ha ([2]; 31 g ai/ha, Preemergence): 80%
- pest or weed control at 125 g/ha [2, 21]: 90%
- pest or weed control at 31 g/ha ([3]; 31 g ai/ha, Preemergence): 90%
- pest or weed control at 125 g/ha [3, 21]: 90%
- pest or weed control at 31 g/ha ([4]; 31 g ai/ha, Preemergence): 0%
- pest or weed control at 125 g/ha [4, 21]: 0%
- pest or weed control at 31 g/ha ([5]; 31 g ai/ha, Preemergence): 0%
- pest or weed control at 125 g/ha [5, 21]: 0%
- pest or weed control at 31 g/ha ([6]; 31 g ai/ha, Preemergence): 0%
- pest or weed control at 125 g/ha [6, 21]: 30%
- pest or weed control at 125 g/ha ([7]; 125 g ai/ha, postemergence, visual injury on 0 to 100 scale (0 no effect, 100 complete control), approx. 10 d, read-out: Galium plant response rating): 0%
- pest or weed control at 31 g/ha ([7]; Postemergence, 31 g ai/ha, visual injury after approx. 10 d, 0 to 100 scale, 0 no effect, 100 complete control, read-out: Plant response rating, Galium): 0%
- pest or weed control at 125 g/ha ([8]; 125 g ai/ha, postemergence, visual injury on 0 to 100 scale (0 no effect, 100 complete control), approx. 10 d, read-out: Kochia plant response rating): 0%
- pest or weed control at 31 g/ha ([8]; Postemergence, 31 g ai/ha, visual injury after approx. 10 d, 0 to 100 scale, 0 no effect, 100 complete control, read-out: Plant response rating, Kochia): 0%
- pest or weed control at 125 g/ha ([9]; 125 g ai/ha, postemergence, visual injury on 0 to 100 scale (0 no effect, 100 complete control), approx. 10 d, read-out: Barnyardgrass plant response rating): 80%
- pest or weed control at 31 g/ha ([9]; Postemergence, 31 g ai/ha, visual injury after approx. 10 d, 0 to 100 scale, 0 no effect, 100 complete control, read-out: Plant response rating, Barnyardgrass): 60%
- pest or weed control at 125 g/ha ([10]; 125 g ai/ha, postemergence, visual injury on 0 to 100 scale (0 no effect, 100 complete control), approx. 10 d, read-out: Blackgrass plant response rating): 50%
- pest or weed control at 31 g/ha ([10]; Postemergence, 31 g ai/ha, visual injury after approx. 10 d, 0 to 100 scale, 0 no effect, 100 complete control, read-out: Plant response rating, Blackgrass): 0%
- plant injury at 125 g/ha ([11]; 125 g ai/ha, postemergence, visual injury on 0 to 100 scale (0 no effect, 100 complete control), approx. 10 d, read-out: Corn plant response rating): 50%
- Corn plant response rating (crop injury, 0 = no effect, 100 = complete kill) at 31 g/ha ([11]; Postemergence, 31 g ai/ha, visual injury after approx. 10 d, 0 to 100 scale, 0 no effect, 100 complete control): 0%
- pest or weed control at 125 g/ha ([12]; 125 g ai/ha, postemergence, visual injury on 0 to 100 scale (0 no effect, 100 complete control), approx. 10 d, read-out: Foxtail, Giant plant response rating): 90%
- pest or weed control at 31 g/ha ([12]; Postemergence, 31 g ai/ha, visual injury after approx. 10 d, 0 to 100 scale, 0 no effect, 100 complete control, read-out: Plant response rating, Foxtail, Giant): 50%
- pest or weed control at 125 g/ha ([13]; 125 g ai/ha, postemergence, visual injury vs untreated controls after approx. 10 d, 0 = no effect, 100 = complete control, read-out: Pigweed plant response rating (0 to 100 scale)): 0%
- pest or weed control at 31 g/ha ([13]; Postemergence, 31 g ai/ha, visual injury after approx. 10 d, 0 to 100 scale, 0 no effect, 100 complete control, read-out: Plant response rating, Pigweed): 0%
- pest or weed control at 125 g/ha ([14]; 125 g ai/ha, postemergence, visual injury vs untreated controls after approx. 10 d, 0 = no effect, 100 = complete control, read-out: Ragweed plant response rating (0 to 100 scale)): 0%
- pest or weed control at 31 g/ha ([14]; Postemergence, 31 g ai/ha, visual injury after approx. 10 d, 0 to 100 scale, 0 no effect, 100 complete control, read-out: Plant response rating, Ragweed): 0%
- pest or weed control at 125 g/ha ([15]; 125 g ai/ha, postemergence, visual injury vs untreated controls after approx. 10 d, 0 = no effect, 100 = complete control, read-out: Ryegrass, Italian plant response rating (0 to 100 scale)): 20%
- pest or weed control at 31 g/ha ([15]; Postemergence, 31 g ai/ha, visual injury after approx. 10 d, 0 to 100 scale, 0 no effect, 100 complete control, read-out: Plant response rating, Ryegrass, Italian): 0%
- plant injury at 125 g/ha ([16]; 125 g ai/ha, postemergence, visual injury vs untreated controls after approx. 10 d, 0 = no effect, 100 = complete control, read-out: Wheat plant response rating (0 to 100 scale)): 40%
- plant injury at 31 g/ha ([16]; Postemergence, 31 g ai/ha, visual injury after approx. 10 d, 0 to 100 scale, 0 no effect, 100 complete control, read-out: Plant response rating, Wheat): 0%
- pest or weed control at 250 g/ha [17]: 75%
- pest or weed control at 250 g/ha [18]: 60%
- pest or weed control at 250 g/ha [19]: 30%
- pest or weed control at 250 g/ha [20]: 40%
